Assay results taken from patent US12171801B2, “Compositions and related methods for controlling vector-borne diseases” (priority 2017, dated 2024).
Entries after “also recorded” stand apart in the source; their conditions may differ.

Assays:
[1] = tested on: Acyrthosiphon pisum aphids; assay: Aphid developmental stage monitoring; format: in vivo
Protocol: (§1) In addition, the developmental stage (1st, 2nd, 3rd, 4th, 5th instar) was determined daily throughout the experiment. Once an aphid reached the 4th instar stage, they were given their own artificial feeding system in a deep petri dish so that fecundity could be monitored once they reached adulthood.
(§2) Each treatment group received approximately the same number of individuals from each of the collection plant. For each treatment, 20 aphids were placed onto each leaf. Aphids were monitored daily for survival and dead aphids were removed when they were discovered. In addition, the developmental stage (1st, 2nd, 3rd, 4th, 5th instar, and 5 R, representing a reproducing 5th instar) was determined daily throughout the experiment. Pictures of aphids were taken throughout the experiment to evaluate size differences between treatment groups.
Aphids LSR-1 (which harbor only Buchnera), Acyrthosiphon pisum were grown on fava bean plants (Vroma vicia faba from Johnny's Selected Seeds) in a climate-controlled incubator (16 h light/8 h dark photoperiod; 60±5% RH; 25±2° C.). Prior to being used for aphid rearing, fava bean plants were grown in potting soil at 24° C. with 16 h of light and 8 h of darkness. To limit maternal effects or health differences between plants, 5-10 adults from different plants were distributed among 10 two-week-old plants, and allowed to multiply to high density for 5-7 days. For experiments, first and second instar aphids were collected from healthy plants and divided into 2 different treatment groups: 1) negative control (leaf injected with water plus blue food coloring) and 2) leaf injected with 50 μg/ml rifampicin in water plus blue food coloring. Each treatment group received approximately the same number of individuals from each of the collection plants. For treatment, rifampicin stock solution (25 mg/ml in 100% methanol) was diluted to 50 μg/ml in water plus blue food coloring. The solution was then placed into a 1.5 ml Eppendorf tube with a fava bean stem perfused with the solutions and the opening of the tube was closed using parafilm. This feeding system was then placed into a deep petri dish (Fisher Scientific, Cat #FB0875711) and aphids were applied to the leaves of the plant. For each treatment, 74-81 aphids were placed onto each leaf. The feeding systems were changed every 2-3 days throughout the experiment. Aphids were monitored daily for survival and dead aphids were removed from the deep petri dish when they were discovered. In addition, the developmental stage (1st, 2nd, 3rd, 4th, 5th and 5 R (5th that has reproduced) instar) was determined daily throughout the experiment.
In addition, the developmental stage (1st 2nd, 3rd, 4th, 5th and 5 R (5th that has reproduced) instar) was determined daily throughout the experiment.
(§3) In addition, the developmental stage (1st, 2nd, 3rd, 4th, 5th, and 5 R (5th that has reproduced) instar) was determined daily throughout the experiment.
In addition, the developmental stage (1st, 2nd, 3rd, 4th, 5th and 5 R (5th that has reproduced) instar) was determined daily throughout the experiment.
In addition, the developmental stage (1st, 2nd, 3rd, 4th, 5th, and 5 R (5th instar aphids that are reproducing) instar) was determined daily throughout the experiment.
In addition, the developmental stage (1st, 2nd, 3rd 4th and 5th instar) was determined daily throughout the experiment.
as §1, with “5th, and 5 R (5th that has reproduced)” for “5th”
as §3

[2] = tested on: Acyrthosiphon pisum aphids; assay: Aphid survival monitoring; format: in vivo
[3] = tested on: Acyrthosiphon pisum aphids; assay: Aphid fecundity; format: in vivo; conditions: 10 or 100 uM
Protocol: as §1
(§4) For adult aphids, new nymphs were counted daily and then discarded. At the end of the experiments, fecundity was determined as the mean number of offspring produced daily once the aphid reached adulthood. Pictures of aphids were taken throughout the experiment to evaluate size differences between treatment groups.
as §1, with “5th, and 5 R (5th that has reproduced)” for “5th”
(§5) For adult aphids, new nymphs were counted daily and then discarded. At the end of the experiments, fecundity was measured in two ways: 1) the mean day at which the first offspring for the treatment group was determined and 2) the mean number of offspring produced daily once the aphid reached adulthood. […]
In addition, the developmental stage (1st, 2nd, 3rd, 4th, 5th instar) was determined daily throughout the experiment. […]

Buchnera = assay: Buchnera/aphid DNA copy number by qPCR; format: in vivo, Acyrthosiphon pisum; conditions: 10 or 100 uM, 8 days
[4] = tested on: Acyrthosiphon pisum aphids; assay: Aphid size (body area) from images; format: in vivo; conditions: 10 or 100 uM in artificial diet, 3 days post-treatment
Protocol: as §4
as §2, with “Pictures of aphids were taken throughout the experiment to evaluate size differences between treatment groups.” left out
as §5
Aphids LSR-1 (which harbor only Buchnera), Acyrthosiphon pisum were grown on fava bean plants (Vroma vicia faba from Johnny's Selected Seeds) in a climate-controlled incubator (16 h light/8 h dark photoperiod; 60±5% RH; 25±2° C.). […] Aphids were monitored daily for survival and dead aphids were removed from the deep petri dish when they were discovered. […]

Asaia = Asaia quantification by qPCR in midguts of azithromycin blood-fed mosquitoes; format: in vivo, Anopheles coluzzii; conditions: azithromycin 0.1, 1 or 5 μg/ml in blood meals; midgut
Protocol: Therapeutic design: Blood meals mixed with azithromycin solutions are formulated with final antibiotic concentrations of 0 (negative control), 0.1, 1, or 5 μg/ml in 1 mL of blood.
Azithromycin solutions are made by dissolving azithromycin (SIGMA-ALDRICH, PZ0007) in DMSO. Different volumes of azithromycin solution are added to fresh blood to total 1 mL in preparation for blood meals. The final azithromycin concentrations in the blood are 0 (just solvent as control solution), 0.1, 1, or 5 μg/ml.
For each Plasmodium infection, at least 100 age-matched, 2- to 3-day-old, mosquitoes per condition are offered a control or experimental blood meal from a membrane-feeding device (2 ml Eppendorf tube) covered with parafilm and kept at 37° C. and nonengorged mosquitoes are removed. Meals are given every four days for a total of three blood meals. […] Deaths are counted daily and carcasses are removed and stored for Asaia analysis as described herein. […]
Before dissection, mosquitoes are immersed in 70% ethanol for 5 minutes then rinsed 3 times in sterile phosphate-buffered saline (PBS) to kill and remove surface bacteria, thus minimizing sample contamination with cuticle bacteria during dissection. […] The 16S ribosomal DNA (rDNA) is used for Asaia quantification and is shown as a ratio of the Anopheles housekeeping gene 40S ribosomal protein S7 (Vector-Base gene ID AGAP010592). […]

[5] = tested on: Anopheles coluzzii mosquitoes; assay: Survival of mosquitoes given azithromycin blood meals; format: in vivo; conditions: azithromycin 0.1, 1 or 5 μg/ml in blood meals
Protocol: For each Plasmodium infection, at least 100 age-matched, 2- to 3-day-old, mosquitoes per condition are offered a control or experimental blood meal from a membrane-feeding device (2 ml Eppendorf tube) covered with parafilm and kept at 37° C. and nonengorged mosquitoes are removed. Meals are given every four days for a total of three blood meals. Between the blood meals, mosquitoes are provided with a cotton pad moistened with distilled water for oviposition. Unfed mosquitoes are not removed after the second and later blood meals. Deaths are counted daily and carcasses are removed and stored for Asaia analysis as described herein. At least 50 mosquitoes per concentration of azithromycin are used for each replicate. At the end of the last blood meal, mosquitoes are kept for 12 hours before dissection.
The survival rates of mosquitoes treated with azithromycin are compared to the mosquitoes treated with the negative control.

Escherichia coli DH5a = assay: Antibiotic coating and penetration of corn kernels (E. coli growth on LB plates); format: cell-based; conditions: kernels soaked in 2.5 or 0.25 mg/ml
[6] = tested on: Sitophilus primary endosymbiont (SPE, Candidatus Sodalis pierantonius); assay: Sitophilus primary endosymbiont (SPE) level by qPCR in weevils; format: in vivo, Sitophilus zeamais; conditions: for SPE amount, water-treated weevils versus treated (F0): 18 days of treatment
Protocol: Sitophilus maize weevils (Sitophilus zeamais) were reared on organic corn at 27.5° C. and 70% relative humidity. Prior to being used for weevil rearing, corn was frozen for 7 days and then tempered to 10% humidity with sterile water. […] Ciprofloxacin (Sigma) stock solutions were made at 25 mg/ml in 0.1 N HCl, sterilized by passing through a 0.22 μm syringe filter, and stored at −20° C. For treatments, the appropriate amount of stock solution was diluted in sterile water.
(§6) Weevil survival was monitored daily for 18 days, after which DNA was extracted from the remaining weevils in each group. Briefly, the weevil body was surface sterilized by dipping the weevil into a 6% bleach solution for approximately 5 seconds. Weevils were then rinsed in sterile water and DNA was extracted from each individual aphid using a DNA extraction kit (Qiagen, DNeasy kit) according to manufacturer's instructions. […]; SEQ ID NO: 243). […]; SEQ ID NO: 245) (Login et al., 2011). qPCR was performed using a qPCR amplification ramp of 1.6 degrees C./s and the following conditions: 1) 95° C. for 10 minutes, 2) 95° C. for 15 seconds, 3) 57° C. for 30 seconds, 4) repeat steps 2-3 40×, 5) 95° C. for 15 seconds, 6) 55° C. for 1 minute, 7) ramp change to 0.15 degrees C./s, 8) 95° C. for 1 second. qPCR data was analyzed using analytic (Thermo Fisher Scientific, QuantStudio Design and Analysis) software.

Sitophilus zeamais [7] = assay: Weevil survival; format: in vivo; conditions: 250 μg/ml or 2.5 mg/ml, 18 days
Excerpt: as §6

Sitophilus zeamais [8] = assay: Development of F1 weevils in dissected corn kernels; format: in vivo; conditions: 250 ug/ml and 2.5 mg/ml
Sitophilus zeamais [9] = assay: Emergence of F1 weevils (fecundity); conditions: 2.5 mg/ml, till day 43
[10] = tested on: gram-negative and gram-positive bacteria as well as fungi; conditions: cited from earlier work
[11] = leaf coating, 10 uM in 0.025% Silwet L-77

Molecule: CC(C)(CO)[C@@H](O)C(=O)NCCCO [pantothenol]
- aphid development ([1]; 10 or 100 uM in artificial diet without essential amino acids, through plants, eNASCO): delayed aphid development
- aphid development [1, 11]: did not affect aphid development
- aphid survival ([2]; 10 or 100 uM in artificial diet, through plants): increased aphid mortality; also recorded: negatively affected aphid fitness
- aphid survival [2, 11]: lower survival rates
- aphid survival ([2]; leaf coating, 10 uM in 0.025% Silwet L-77, listed as Pantothenol): aphid death
- aphid reproduction [3]: loss of aphid reproduction
- aphid reproduction ([3]; listed as Pantothenol): loss of reproduction
- Buchnera/aphid DNA copies (Buchnera): does not affect Buchnera/aphid DNA copy number directly
- Buchnera/aphid DNA copies (Buchnera; listed as Pantothenol): did not affect endosymbiotic Buchnera
- aphid size (area) [4]: drastic effect; also recorded: smaller in area than untreated controls

Molecule: CC[C@H]1OC(=O)[C@H](C)[C@@H](O[C@H]2C[C@@](C)(OC)[C@@H](O)[C@H](C)O2)[C@H](C)[C@@H](O[C@@H]2O[C@H](C)C[C@H](N(C)C)[C@H]2O)[C@](C)(O)C[C@@H](C)CN(C)[C@H](C)[C@@H](O)[C@]1(C)O [azithromycin]
- Asaia specific genes (16S rDNA qPCR, ratio to S7) (Asaia): reduction of Asaia specific genes
- survival rate of mosquitoes [5]: decreased compared to the control

Molecule: O=C(O)c1cn(C2CC2)c2cc(N3CCNCC3)c(F)cc2c1=O [ciprofloxacin]
- E. coli growth on plates with entire soaked corn kernels (Escherichia coli DH5a): inhibition of bacterial growth; also recorded: no bacteria grew
- SPE amount, water-treated weevils versus treated (F0) ([6]; 250 ug/ml): approximately 4 fold higher
- SPE amount, water-treated weevils versus treated (F0) ([6]; 2.5 mg/ml): ~8 fold higher
- SPE level, water-treated F1 weevils versus treated ([6]; 2.5 mg/ml, F1 weevils dissected from corn kernels): approximately 4 fold higher
- weevil survival (Sitophilus zeamais [7]): all weevils remained alive
- development of F1 weevils (Sitophilus zeamais [8]): delay in development
- emerged F1 offspring (Sitophilus zeamais [9]): much less offspring

B1: NCR335: NCR peptide, SEQ ID NO: 197 (peptide)
chain: MKMRIHMAQIIMFFYALIIFLSPFLVDRRSFPSSFVSPKSYTSEIPCKATRDCPYELYYETKCVDSLCTY
- antimicrobial activity [10]: effective against gram-negative and gram-positive bacteria as well as fungi
